Non-standard residues stand in square brackets, D forms with d. Residues, ends and D or L forms follow the SMILES beside them. *: point of attachment. Dolaproine = CO[C@@H]([C@@H]1CCCN1)[C@@H](C)C(=O)O; Dil = CC[C@H](C)[C@H](NC)[C@@H](CC(=O)O)OC; X1 = C[C@@H](N*)[C@@H](O)c1ccccc1; NMeV = CN[C@H](C(=O)O)C(C)C

The source of these data is patent US20200308299A1, “ANTI-GPC-1 ANTIBODY” (National University Corporation Kochi University, priority 2017, published 2020).

For this experiment, the system named is TE14 cells. Kind of experiment: Anticancer agent sensitivity of TE14 cells (CellTiter-Glo cell viability). It is filed as cell-based. The settings on record: cultured 6 days. As to the method:
2000 TE14 cells were added to a 96-well plate at 90 μl. The cells were cultured overnight at 37° C. in a 5% CO2 incubator. The next day, 10 μl of an anticancer agent concentrated 10-fold relative to the final concentration was added to each well, so that the total amount was 100 μl. The cells were cultured for 6 days at 37° C. in a 5% CO2 incubator. The cell viability was measured by using a CellTiter-Glo Luminescent Cell Viability Assay reagent to detect the amount of ATP. RPMI1640+10% FBS+1% PS was used as the medium. MMAE (model number: 474645-27-7, ALB Technology) and MMAF (model number: 745017-94-1, ALB Technology) were used as the anticancer agent.
On the technique in general: ATP-based viability assays read luminescence as a measure of living cells.

Take `CC[C@H](C)[C@@H]([C@@H](CC(=O)N1CCC[C@H]1[C@H](OC)[C@@H](C)C(=O)N[C@H](C)[C@@H](O)c1ccccc1)OC)N(C)C(=O)[C@@H](NC(=O)[C@@H](NC)C(C)C)C(C)C` [MMAE, monomethyl auristatin-E] (H-[NMeV]V[Dil][Dolaproine]-X1): it took 0.926 nM to reach half-maximal inhibition (IC50). In the case of `CC[C@H](C)[C@@H]([C@@H](CC(=O)N1CCC[C@H]1[C@H](OC)[C@@H](C)C(=O)N[C@@H](Cc1ccccc1)C(=O)O)OC)N(C)C(=O)[C@@H](NC(=O)[C@@H](NC)C(C)C)C(C)C` [MMAF, monomethyl auristatin-F] (H-[NMeV]V[Dil][Dolaproine]F-OH) it was 26.8 nM.
